Measurements from article PMC10405867 (Journal of Enzyme Inhibition and Medicinal Chemistry, 2023).

Molecular target: SARS-CoV-2 Mpro (Severe acute respiratory syndrome coronavirus 2, UniProt P0DTD1)
Assay: biochemical
Assay type: biochemical

Structure (SMILES)	IC50 [µM]	fold decreased 3CL-Pro inhibitory activity than unsubstituted counterpart 6a
CC(=O)c1ccc(NC(=O)Cn2cc(CN3C(=O)C(=O)c4ccccc43)nn2)cc1 [10a, N-(4-Acetylphenyl)-2–(4-((2,3-dioxoindolin-1-yl)methyl)-1H-1,2,3-triazol-1-yl)acetamide]	12.3 ± 0.73	–
NS(=O)(=O)c1ccc(NC(=O)Cn2cc(CN3C(=O)C(=O)c4ccccc43)nn2)cc1 [6a, 2–(4-((2,3-Dioxoindolin-1-yl)methyl)-1H-1,2,3-triazol-1-yl)-N-(4-sulfamoylphenyl)acetamide]	0.562 ± 0.005	–
NS(=O)(=O)c1ccc(NC(=O)Cn2cc(CN3C(=O)C(=O)c4cc(OC(F)(F)F)ccc43)nn2)cc1 [6d, 2–(4-((2,3-Dioxo-5-(trifluoromethoxy)indolin-1-yl)methyl)-1H-1,2,3-triazol-1-yl)-N-(4-sulfamoylphenyl)acetamide]	1.05 ± 0.053	about 2 fold
COc1ccc2c(c1)C(=O)C(=O)N2Cc1cn(CC(=O)Nc2ccc(C(C)=O)cc2)nn1 [10b, N-(4-Acetylphenyl)-2–(4-((5-methoxy-2,3-dioxoindolin-1-yl)methyl)-1H-1,2,3-triazol-1-yl)acetamide]	17.1 ± 0.815	–
